In patent US7442788B2, “Antisense molecules and method of controlling expression of gene function by using the same” (Japan Science and Technology Corporation, priority 2001, dated 2008):

System: d(C)8
Assay: Melting temperature (Tm) of homopurine PRNA-DNA complex
Assay type: binding

NH2-isoGln(5′I)-isoGln(5′I)-isoGln(5′I)-isoGln(5′I)-isoGln(5′I)-isoGln(5′I)-isoGln(5′I)-isoGln(5′I)-Lys-OH [NH2-IIIIIIII-Lys-OH]
Tm (binding target d(C)8, 20 mM borax): <−5 °C
Tm (binding target d(C)8, no additive): 4.8 °C
